Among the targets are Histamine H1 receptor (Homo sapiens, UniProt P35367); Glucagon receptor (Homo sapiens, UniProt P47871); D(1A) dopamine receptor (Homo sapiens, UniProt P21728).
The target in assay [1] is T1, Alpha-2B adrenergic receptor (Homo sapiens, UniProt P18089).
T1 sequence (P18089 whole entry): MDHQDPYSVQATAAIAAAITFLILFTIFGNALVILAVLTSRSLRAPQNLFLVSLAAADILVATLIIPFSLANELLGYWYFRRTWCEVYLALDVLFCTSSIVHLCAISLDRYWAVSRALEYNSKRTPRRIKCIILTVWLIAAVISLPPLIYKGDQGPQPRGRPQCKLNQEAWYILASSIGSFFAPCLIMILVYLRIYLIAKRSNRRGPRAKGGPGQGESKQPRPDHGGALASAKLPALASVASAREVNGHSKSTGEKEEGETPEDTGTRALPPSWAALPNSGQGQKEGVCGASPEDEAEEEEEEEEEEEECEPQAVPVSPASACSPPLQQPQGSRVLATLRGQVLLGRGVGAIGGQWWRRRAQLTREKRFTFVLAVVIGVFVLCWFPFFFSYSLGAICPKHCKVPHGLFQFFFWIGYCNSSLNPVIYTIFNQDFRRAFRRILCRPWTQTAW

The target of assay [2] is Gamma-aminobutyric acid receptor subunit alpha-1/alpha-2/beta-2/gamma-2 (Homo sapiens, UniProt P14867+P18507+P47869+P47870). Format: functional, cell-based.
Assay [3] concerns the target Sodium-dependent serotonin transporter (Homo sapiens, UniProt P31645).
Assay [4] concerns the target Beta-2 adrenergic receptor (Homo sapiens, UniProt P07550).
The target of assay [5] is Beta-3 adrenergic receptor (Homo sapiens, UniProt P13945).
The target of another assay is T2, Estrogen receptor (Homo sapiens, UniProt P03372).
T2 sequence (P03372 whole entry): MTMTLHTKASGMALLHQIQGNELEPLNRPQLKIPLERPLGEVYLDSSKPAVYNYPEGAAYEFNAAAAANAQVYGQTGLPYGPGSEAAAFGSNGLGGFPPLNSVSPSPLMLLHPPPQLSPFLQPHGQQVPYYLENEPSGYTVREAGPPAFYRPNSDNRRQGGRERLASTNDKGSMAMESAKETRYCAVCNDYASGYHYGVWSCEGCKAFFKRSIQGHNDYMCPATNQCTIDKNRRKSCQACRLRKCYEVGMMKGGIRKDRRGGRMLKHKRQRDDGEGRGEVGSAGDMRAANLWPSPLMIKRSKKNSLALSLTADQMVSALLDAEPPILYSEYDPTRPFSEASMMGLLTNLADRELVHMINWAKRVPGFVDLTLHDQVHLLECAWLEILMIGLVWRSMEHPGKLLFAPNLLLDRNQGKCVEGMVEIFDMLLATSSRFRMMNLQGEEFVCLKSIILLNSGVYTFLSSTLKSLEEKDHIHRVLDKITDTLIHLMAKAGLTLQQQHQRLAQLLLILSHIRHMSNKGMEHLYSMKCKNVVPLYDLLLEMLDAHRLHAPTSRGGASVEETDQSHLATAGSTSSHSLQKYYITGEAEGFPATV

The target in assay [6] is T3, Gastric inhibitory polypeptide receptor (Homo sapiens, UniProt P48546).
T3 sequence (P48546 whole entry): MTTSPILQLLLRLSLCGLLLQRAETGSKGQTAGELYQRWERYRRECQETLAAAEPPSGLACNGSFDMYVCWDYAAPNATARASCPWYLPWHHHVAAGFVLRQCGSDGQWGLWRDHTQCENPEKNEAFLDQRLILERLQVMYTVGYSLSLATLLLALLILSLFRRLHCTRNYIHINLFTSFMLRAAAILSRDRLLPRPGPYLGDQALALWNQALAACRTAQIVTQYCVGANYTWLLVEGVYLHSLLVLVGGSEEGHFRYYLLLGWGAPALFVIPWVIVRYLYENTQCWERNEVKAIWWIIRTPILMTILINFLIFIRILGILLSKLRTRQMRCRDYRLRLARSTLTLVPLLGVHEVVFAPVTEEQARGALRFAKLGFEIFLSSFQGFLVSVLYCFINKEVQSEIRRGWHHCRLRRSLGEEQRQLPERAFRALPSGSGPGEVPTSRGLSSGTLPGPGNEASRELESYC

Assay [7] addresses T4, Neuropeptide Y receptor type 2 (Homo sapiens, UniProt P49146).
T4 sequence (P49146 whole entry): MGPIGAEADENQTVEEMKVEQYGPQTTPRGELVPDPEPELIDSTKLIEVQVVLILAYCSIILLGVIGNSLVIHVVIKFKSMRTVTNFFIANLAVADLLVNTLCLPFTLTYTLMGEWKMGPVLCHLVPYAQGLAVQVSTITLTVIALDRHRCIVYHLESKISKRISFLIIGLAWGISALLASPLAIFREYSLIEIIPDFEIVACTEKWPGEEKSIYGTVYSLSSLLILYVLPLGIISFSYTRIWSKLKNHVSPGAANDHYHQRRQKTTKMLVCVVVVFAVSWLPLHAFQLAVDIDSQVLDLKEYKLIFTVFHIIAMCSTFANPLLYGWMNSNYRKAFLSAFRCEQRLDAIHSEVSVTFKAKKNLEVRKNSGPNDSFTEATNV

For assay [8], the target named is T5, Muscarinic acetylcholine receptor M2 (Homo sapiens, UniProt P08172).
T5 sequence (P08172 whole entry): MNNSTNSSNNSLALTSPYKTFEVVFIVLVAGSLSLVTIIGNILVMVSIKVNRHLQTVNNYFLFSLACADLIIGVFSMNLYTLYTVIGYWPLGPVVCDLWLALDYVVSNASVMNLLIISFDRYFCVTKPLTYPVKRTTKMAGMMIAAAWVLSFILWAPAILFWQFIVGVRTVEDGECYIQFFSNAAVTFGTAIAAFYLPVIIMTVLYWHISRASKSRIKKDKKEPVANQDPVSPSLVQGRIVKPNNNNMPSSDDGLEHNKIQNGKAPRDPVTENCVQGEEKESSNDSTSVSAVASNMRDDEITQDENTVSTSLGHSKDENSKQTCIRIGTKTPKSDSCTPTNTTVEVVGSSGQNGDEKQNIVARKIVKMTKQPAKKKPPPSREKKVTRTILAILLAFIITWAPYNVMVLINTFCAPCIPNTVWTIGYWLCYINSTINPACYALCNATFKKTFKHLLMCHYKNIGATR
Also: assay procedure not described here.

D(1A) dopamine receptor, sequence (P21728 whole entry): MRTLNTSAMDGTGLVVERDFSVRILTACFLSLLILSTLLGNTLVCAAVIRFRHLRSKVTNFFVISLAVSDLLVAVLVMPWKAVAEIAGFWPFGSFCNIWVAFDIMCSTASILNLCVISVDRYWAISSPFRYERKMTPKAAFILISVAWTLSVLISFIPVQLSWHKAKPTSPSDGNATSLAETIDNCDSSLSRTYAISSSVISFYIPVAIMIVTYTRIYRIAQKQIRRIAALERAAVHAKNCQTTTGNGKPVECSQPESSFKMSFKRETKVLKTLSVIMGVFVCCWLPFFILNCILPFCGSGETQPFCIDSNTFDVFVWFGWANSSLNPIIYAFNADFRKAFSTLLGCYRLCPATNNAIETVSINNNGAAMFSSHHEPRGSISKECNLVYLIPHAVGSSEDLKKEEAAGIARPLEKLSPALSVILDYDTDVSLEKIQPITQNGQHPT
Beta-3 adrenergic receptor, sequence (P13945 whole entry): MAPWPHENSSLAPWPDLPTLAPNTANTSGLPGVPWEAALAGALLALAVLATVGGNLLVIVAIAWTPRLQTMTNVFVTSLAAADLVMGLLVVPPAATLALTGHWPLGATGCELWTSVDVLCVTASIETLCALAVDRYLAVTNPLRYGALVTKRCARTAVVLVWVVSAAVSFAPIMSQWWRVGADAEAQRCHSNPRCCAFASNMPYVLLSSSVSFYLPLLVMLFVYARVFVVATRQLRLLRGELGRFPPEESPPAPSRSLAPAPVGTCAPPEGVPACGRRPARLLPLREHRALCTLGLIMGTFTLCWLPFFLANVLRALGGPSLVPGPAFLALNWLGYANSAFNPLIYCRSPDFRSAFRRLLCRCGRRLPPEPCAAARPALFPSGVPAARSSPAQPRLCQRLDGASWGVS
Histamine H1 receptor, sequence (P35367 whole entry): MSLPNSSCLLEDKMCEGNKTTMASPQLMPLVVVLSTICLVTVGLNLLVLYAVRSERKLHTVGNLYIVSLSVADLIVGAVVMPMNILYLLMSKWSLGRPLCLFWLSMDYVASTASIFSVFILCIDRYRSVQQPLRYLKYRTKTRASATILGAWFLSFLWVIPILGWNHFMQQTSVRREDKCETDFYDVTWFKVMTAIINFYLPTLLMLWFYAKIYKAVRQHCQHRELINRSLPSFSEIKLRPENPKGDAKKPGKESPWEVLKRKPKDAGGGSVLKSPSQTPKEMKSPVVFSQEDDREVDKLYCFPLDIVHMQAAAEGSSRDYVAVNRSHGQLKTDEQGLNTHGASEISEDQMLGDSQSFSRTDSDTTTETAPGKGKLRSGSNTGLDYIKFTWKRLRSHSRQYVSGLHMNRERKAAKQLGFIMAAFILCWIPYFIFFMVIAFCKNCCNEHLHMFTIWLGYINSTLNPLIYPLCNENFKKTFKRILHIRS
Glucagon receptor, sequence (P47871 whole entry): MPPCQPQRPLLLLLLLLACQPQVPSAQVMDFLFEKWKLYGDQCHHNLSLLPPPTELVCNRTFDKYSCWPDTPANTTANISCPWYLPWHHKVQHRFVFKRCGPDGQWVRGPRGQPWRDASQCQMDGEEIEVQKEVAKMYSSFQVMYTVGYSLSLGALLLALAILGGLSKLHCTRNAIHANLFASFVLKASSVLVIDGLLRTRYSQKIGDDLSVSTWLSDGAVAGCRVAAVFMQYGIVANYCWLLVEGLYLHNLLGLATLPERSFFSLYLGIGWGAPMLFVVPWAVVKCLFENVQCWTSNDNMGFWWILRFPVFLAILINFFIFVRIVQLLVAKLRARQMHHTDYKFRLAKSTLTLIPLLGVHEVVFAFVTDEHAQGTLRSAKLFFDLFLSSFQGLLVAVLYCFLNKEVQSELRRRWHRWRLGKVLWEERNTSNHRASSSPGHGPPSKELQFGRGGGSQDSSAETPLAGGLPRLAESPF
Beta-2 adrenergic receptor, sequence (P07550 whole entry): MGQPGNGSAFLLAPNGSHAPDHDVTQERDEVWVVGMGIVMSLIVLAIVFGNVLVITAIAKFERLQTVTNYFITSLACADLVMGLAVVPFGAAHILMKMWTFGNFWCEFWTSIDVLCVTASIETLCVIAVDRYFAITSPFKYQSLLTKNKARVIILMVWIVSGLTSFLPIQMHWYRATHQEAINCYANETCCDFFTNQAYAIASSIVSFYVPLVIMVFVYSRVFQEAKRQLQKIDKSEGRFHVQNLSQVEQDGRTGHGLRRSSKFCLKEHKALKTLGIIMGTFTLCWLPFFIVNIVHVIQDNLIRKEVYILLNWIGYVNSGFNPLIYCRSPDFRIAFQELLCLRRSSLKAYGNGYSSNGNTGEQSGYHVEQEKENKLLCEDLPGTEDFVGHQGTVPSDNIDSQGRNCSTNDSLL
Sodium-dependent serotonin transporter, sequence (P31645 whole entry): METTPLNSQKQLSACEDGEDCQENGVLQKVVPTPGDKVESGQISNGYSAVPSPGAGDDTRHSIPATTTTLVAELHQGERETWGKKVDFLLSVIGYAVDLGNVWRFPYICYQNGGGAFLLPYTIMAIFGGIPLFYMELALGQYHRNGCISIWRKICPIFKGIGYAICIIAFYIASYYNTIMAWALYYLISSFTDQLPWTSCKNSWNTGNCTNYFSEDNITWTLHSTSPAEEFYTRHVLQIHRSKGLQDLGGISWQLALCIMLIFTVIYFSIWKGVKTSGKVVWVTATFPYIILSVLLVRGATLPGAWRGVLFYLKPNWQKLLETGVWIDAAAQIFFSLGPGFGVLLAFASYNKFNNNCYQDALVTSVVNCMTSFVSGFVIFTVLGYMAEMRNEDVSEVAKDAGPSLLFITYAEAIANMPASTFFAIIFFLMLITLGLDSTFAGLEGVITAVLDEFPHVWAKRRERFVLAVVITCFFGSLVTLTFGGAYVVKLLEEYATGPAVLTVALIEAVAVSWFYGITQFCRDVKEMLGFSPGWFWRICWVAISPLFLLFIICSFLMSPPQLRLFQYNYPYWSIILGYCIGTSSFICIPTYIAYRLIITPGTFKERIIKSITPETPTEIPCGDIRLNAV
Gamma-aminobutyric acid receptor subunit alpha-1/alpha-2/beta-2/gamma-2, sequence (P14867 whole entry): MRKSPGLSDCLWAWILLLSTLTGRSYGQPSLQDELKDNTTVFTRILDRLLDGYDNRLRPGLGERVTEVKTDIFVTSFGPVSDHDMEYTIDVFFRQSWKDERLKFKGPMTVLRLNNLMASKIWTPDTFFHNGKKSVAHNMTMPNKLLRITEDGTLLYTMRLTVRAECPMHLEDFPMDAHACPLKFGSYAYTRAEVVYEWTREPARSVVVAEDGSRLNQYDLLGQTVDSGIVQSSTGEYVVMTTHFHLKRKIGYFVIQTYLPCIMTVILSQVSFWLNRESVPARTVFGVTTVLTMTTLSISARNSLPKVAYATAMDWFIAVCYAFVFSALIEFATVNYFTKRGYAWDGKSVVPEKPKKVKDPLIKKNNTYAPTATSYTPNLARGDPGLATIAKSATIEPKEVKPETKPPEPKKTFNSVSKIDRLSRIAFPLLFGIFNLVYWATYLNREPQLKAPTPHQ
Gamma-aminobutyric acid receptor subunit alpha-1/alpha-2/beta-2/gamma-2, sequence (P47870 whole entry): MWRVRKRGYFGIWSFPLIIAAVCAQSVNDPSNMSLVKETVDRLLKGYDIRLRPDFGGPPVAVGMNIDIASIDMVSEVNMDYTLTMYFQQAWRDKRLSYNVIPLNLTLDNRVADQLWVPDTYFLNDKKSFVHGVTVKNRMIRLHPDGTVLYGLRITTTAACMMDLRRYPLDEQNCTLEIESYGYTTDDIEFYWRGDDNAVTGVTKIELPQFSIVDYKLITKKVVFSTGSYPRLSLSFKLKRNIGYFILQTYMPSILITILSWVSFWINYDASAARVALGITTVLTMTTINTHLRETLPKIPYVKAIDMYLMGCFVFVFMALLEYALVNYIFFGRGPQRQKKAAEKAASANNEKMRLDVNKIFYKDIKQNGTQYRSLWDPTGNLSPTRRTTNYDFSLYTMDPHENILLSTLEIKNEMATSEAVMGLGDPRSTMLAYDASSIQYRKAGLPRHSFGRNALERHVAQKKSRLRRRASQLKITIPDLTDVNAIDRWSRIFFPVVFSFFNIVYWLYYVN
Gamma-aminobutyric acid receptor subunit alpha-1/alpha-2/beta-2/gamma-2, sequence (P18507 whole entry): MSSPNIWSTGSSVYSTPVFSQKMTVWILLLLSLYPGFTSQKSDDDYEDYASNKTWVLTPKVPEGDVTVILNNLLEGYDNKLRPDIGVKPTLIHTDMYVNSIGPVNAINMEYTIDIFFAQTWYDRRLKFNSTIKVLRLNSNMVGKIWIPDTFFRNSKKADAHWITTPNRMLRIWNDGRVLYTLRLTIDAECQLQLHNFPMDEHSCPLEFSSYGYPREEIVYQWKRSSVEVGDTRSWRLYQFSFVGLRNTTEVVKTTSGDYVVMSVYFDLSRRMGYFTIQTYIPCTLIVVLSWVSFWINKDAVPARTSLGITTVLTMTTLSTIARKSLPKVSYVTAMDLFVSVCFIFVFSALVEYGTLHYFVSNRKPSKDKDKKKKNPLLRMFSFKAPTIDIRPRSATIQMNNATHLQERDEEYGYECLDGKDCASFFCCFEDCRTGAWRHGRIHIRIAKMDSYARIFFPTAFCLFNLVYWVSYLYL
Gamma-aminobutyric acid receptor subunit alpha-1/alpha-2/beta-2/gamma-2, sequence (P47869 whole entry): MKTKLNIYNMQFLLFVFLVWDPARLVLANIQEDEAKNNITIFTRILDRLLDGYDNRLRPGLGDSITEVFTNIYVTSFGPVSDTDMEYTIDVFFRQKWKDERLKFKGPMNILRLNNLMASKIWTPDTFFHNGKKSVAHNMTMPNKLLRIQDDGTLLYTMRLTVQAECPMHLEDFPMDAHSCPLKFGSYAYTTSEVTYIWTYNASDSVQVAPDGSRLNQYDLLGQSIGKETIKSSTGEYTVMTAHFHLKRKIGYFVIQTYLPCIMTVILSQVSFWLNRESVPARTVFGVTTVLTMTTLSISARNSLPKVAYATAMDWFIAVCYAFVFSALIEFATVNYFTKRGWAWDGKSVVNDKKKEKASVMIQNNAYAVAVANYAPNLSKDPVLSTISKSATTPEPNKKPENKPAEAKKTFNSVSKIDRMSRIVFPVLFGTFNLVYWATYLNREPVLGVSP

Regarding `CC(=N)N1CC[C@H](SC2=C(C(=O)O)N3C(=O)[C@H]([C@@H](C)O)[C@H]3C2)C1`, the AC50 – broadly, the concentration giving half of the maximal activity seen – is 300 µM in [1], greater than 2400 µM in [2], greater than 300 µM at Histamine H1 receptor and 37 µM in assay [3].
For `CO/N=C(\C(=O)N[C@@H]1C(=O)N2C(C(=O)O)=C(COC(N)=O)CS[C@H]12)c1ccco1` [CEFUROXIME], in that order: greater than 30 µM, greater than 30 µM, greater than 30 µM and greater than 30 µM.
On to `COC(=O)[C@H](c1ccccc1Cl)N1CCc2sccc2C1` [CLOPIDOGREL], for which the AC50 (in assay [4]; in [5]; at Estrogen receptor; in assay [2]; on Glucagon receptor; in assay [6]) was greater than 30 µM each time. In addition, the AC50 in assay [7] is greater than 30 µM; in [8] it was greater than 10 µM; on D(1A) dopamine receptor, greater than 10 µM.
Consider `C#Cc1cccc(Nc2ncnc3cc(OCCOC)c(OCCOC)cc23)c1` [ERLOTINIB], for which the AC50 (in assay [1]; in assay [2]; on Histamine H1 receptor) was greater than 30 µM each time.
Regarding `CCC(=O)O[C@@H](O[P@](=O)(CCCCc1ccccc1)CC(=O)N1C[C@H](C2CCCCC2)C[C@H]1C(=O)O)C(C)C` [FOSINOPRIL], the AC50 (in assay [1]; in assay [2]; on Histamine H1 receptor) was greater than 30 µM throughout.
`C[C@H]1Oc2cc(cnc2N)-c2c(nn(C)c2C#N)CN(C)C(=O)c2ccc(F)cc21` [LORLATINIB]: the AC50 (in assay [1]; in assay [2]; at Histamine H1 receptor; in assay [3]) was greater than 30 µM each time.
Turning to `Cc1cnc(NC(=O)C2=C(O)c3ccccc3S(=O)(=O)N2C)s1` [MELOXICAM], the AC50 is greater than 10 µM in assay [4]; greater than 30 µM in [5]; greater than 30 µM at Estrogen receptor; greater than 30 µM on Glucagon receptor; greater than 30 µM in [6]; greater than 30 µM in assay [7]. The AC50 (in [8]; on D(1A) dopamine receptor) was greater than 10 µM in each case.
For `CN(C)c1cc(CNCC(C)(C)C)c(O)c2c1C[C@H]1C[C@H]3[C@H](N(C)C)C(O)=C(C(N)=O)C(=O)[C@@]3(O)C(O)=C1C2=O` [OMADACYCLINE], the AC50 in assay [1] was 30 µM; on Estrogen receptor, greater than 30 µM; in assay [2], greater than 30 µM; at Histamine H1 receptor, greater than 30 µM; in [3], 11 µM; in assay [8], 4.25 µM.
On to `COc1ccnc(C[S+]([O-])c2nc3ccc(OC(F)F)cc3[nH]2)c1OC` (centres undefined) [PANTOPRAZOLE], for which the AC50 in assay [4] is greater than 10 µM; in [5], greater than 30 µM; at Estrogen receptor, greater than 30 µM; at Glucagon receptor, greater than 30 µM; in assay [6], greater than 30 µM; in assay [7] it was greater than 30 µM. Further, the AC50 (in assay [8]; at D(1A) dopamine receptor) was greater than 10 µM in each case.
Take `CC(C)C[C@H](CN)CC(=O)O` [PREGABALIN]: the AC50 (in assay [1]; in assay [4]; in [5]; on Estrogen receptor; in assay [2]; on Glucagon receptor) was greater than 30 µM in each case. The AC50 (in assay [6]; on Histamine H1 receptor; in assay [7]; in assay [3]) was greater than 30 µM each time.
As to `CCOc1cc(CC(=O)N[C@@H](CC(C)C)c2ccccc2N2CCCCC2)ccc1C(=O)O` [REPAGLINIDE], the AC50 (in assay [1]; in [2]; on Histamine H1 receptor; in assay [3]) was greater than 30 µM in each case.
Regarding `CCCN(CCC)CCc1cccc2c1CC(=O)N2` [ROPINIROLE], the AC50 in assay [4] is greater than 10 µM; in assay [5] it was greater than 30 µM; in assay [2], greater than 30 µM; on Glucagon receptor, greater than 30 µM; in [6] it was greater than 30 µM; on Histamine H1 receptor it was 14 µM. Also, the concentration at half-maximal activity (AC50) was greater than 30 µM in assay [7], greater than 30 µM in [3], 12.1 µM in assay [8] and greater than 10 µM at D(1A) dopamine receptor.
`CCCN(CCc1cccs1)[C@H]1CCc2c(O)cccc2C1` [ROTIGOTINE]: the figures for the AC50 in assay [1], in [2] and in [3] were 0.13 µM, greater than 30 µM and 7.8 µM, respectively.
Regarding `CC(=O)S[C@@H]1CC2=CC(=O)CC[C@]2(C)[C@H]2CC[C@@]3(C)[C@@H](CC[C@@]34CCC(=O)O4)[C@H]12` [SPIRONOLACTONE], the AC50 is greater than 10 µM in assay [4]; greater than 30 µM in assay [5]; greater than 30 µM at Estrogen receptor; greater than 30 µM in assay [2]; greater than 30 µM on Glucagon receptor; greater than 30 µM in [6]. Also, the AC50 was greater than 30 µM in [7], greater than 10 µM in assay [8] and greater than 10 µM on D(1A) dopamine receptor.
In the case of `CN1CCN(CCCN2c3ccccc3Sc3ccc(S(=O)(=O)N(C)C)cc32)CC1` [THIOPROPERAZINE], the values for the AC50 (in assay [1]; in assay [2]; at Histamine H1 receptor) were 0.15 µM, greater than 30 µM and 0.33 µM, respectively.
Turning to `CC1(C)O[C@@H]2[C@@H](CO[C@@]3(COS(N)(=O)=O)OC(C)(C)O[C@@H]23)O1` [TOPIRAMATE], the AC50 in assay [1] is greater than 10 µM; in [4] it was greater than 10 µM; in assay [5], greater than 30 µM; at Estrogen receptor, greater than 30 µM; on Glucagon receptor, greater than 30 µM; in assay [6], greater than 30 µM. For the same compound, the AC50 is greater than 10 µM on Histamine H1 receptor; greater than 30 µM in assay [7]; greater than 10 µM in assay [3]; greater than 10 µM in assay [8]; greater than 10 µM at D(1A) dopamine receptor.

The values above are taken from ChEMBL document CHEMBL5291721, “A preclinical secondary pharmacology resource illuminates target-adverse drug reaction associations of marketed drugs” (Nat Commun, 2023).
